Results as given in patent publication US6949648B2, “Condensed pyrazole derivatives, process for producing the same and use thereof” (Takeda Pharmaceutical Company Limited, priority 2000, dated 2005).
Marks after values point to notes of the source that are not given here.

Key:
human COX-2 = target: T1, human COX-2 (Homo sapiens, UniProt P35354); assay: Determination of COX-2 inhibitory activity (microsome fraction, chemiluminescence); type: biochemical; settings: microsome fraction 20 μg, arachidonic acid, 37° C. 25 minutes preincubation; read-out: Repression rate IC50 (μM) COX-2
T1 construct: made in house; host or cells: Sf-21 insect cells (recombinant baculovirus BAC-COX2, pFASTBAC1); microsome fraction
T1 sequence (P35354 18-604): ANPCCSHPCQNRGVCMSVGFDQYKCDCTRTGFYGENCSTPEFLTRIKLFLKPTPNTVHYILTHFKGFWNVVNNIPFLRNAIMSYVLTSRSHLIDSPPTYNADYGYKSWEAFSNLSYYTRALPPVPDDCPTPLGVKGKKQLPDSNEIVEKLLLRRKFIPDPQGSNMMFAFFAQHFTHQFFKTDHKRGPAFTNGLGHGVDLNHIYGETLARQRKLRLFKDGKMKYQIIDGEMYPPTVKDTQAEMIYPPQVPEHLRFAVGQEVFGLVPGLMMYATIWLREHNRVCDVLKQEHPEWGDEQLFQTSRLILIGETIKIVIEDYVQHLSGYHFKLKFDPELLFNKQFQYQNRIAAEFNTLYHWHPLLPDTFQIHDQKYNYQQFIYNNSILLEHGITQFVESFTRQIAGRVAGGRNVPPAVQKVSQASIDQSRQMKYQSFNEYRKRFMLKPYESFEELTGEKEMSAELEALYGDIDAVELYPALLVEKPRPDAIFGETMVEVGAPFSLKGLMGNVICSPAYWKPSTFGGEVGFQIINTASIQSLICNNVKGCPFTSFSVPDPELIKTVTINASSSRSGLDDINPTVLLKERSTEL
Method: A 1.8 kb DNA fragment containing human COX-2 cDNA (Proc. Natl. Acad. Sci. U.S.A., vol. 89 (16), p. 7384-7388 (1992)) prepared by the PCR method was inserted into plasmid pFASTBAC1 (CIBCOBRAL) to obtain a plasmid pFBCOX2.
Using the plasmid pFBCOX2 and BAC-TO-BAC Baculovirus Expression System (GIBCOBRAL), a virus stock BAC-COX2 of the recombinant baculovirus was prepared.
Sf-21 cells were inoculated in 125 mL of LSf-900 II SFM medium (GIBCOBRAL) at a concentration of 1×10^6 cells/mL, and the medium was incubated at 27° C. for 24 hours. 0.75 mL of the virus stock BAC-COX2 of the recombinant baculovirus was added thereto, and was incubated further for 72 hours. The cells were separated from the medium by centrifugation (3000 rpm, 10 min), and washed with PBS twice. The cells were suspended in 10 mL of a Lysis buffer (0.1M Tris-HCl (pH 7.4), 5 mM EDTA), and were treated with a homogenizer (POLYTRON), three times at 20000 rpm for 20 seconds so that the cells were crushed. The supernatant thus obtained after centrifugation (2000 rpm, 10 minutes) was further centrifuged (40000 rpm, 45 minutes) to obtain a precipitate, which was resuspended in a Lysis buffer (0.1M Tris-HCl (pH 7.4), 5 mM EDTA), and the suspension was stored at −80° C.
Determination of COX-1 and COX-2 Inhibitory Activities
To a mixture of 20 μL of a reaction buffer previously concentrated 10 times (1M Tris-HCl (pH8.0), 50 mM EDTA, 1.0% Tween 20, 50 mM luminol, 100 μM hematin), 20 μL of the microsome fractions (COX-1: 40 μg, COX-2: 20 μg), and 55 μL of distilled water, a sample compound dissolved in DMF (5 μL) was added, and the mixture was left at 37° C. for 25 minutes. The reaction was started by the addition of 20 μM arachidonic acid (100 μL), and chemiluminescence amount during the 10-second period after the addition of arachidonic acid was determined by the use of Lumistar (BMG Lab technologies, GmbH). The inhibition rate was calculated, regarding that the enzyme activity when DMF ([…]) was added was 100%, and the enzyme activity when 4 mM flurbiprofen (5 μL) was added was 0%.

[1] = system: acetic acid induced rising and stretching; assay: Analgesic activity, acetic acid rising method; type: in vivo, ICR-mice; settings: po, 20 min; 10 mg/kg orally, 30 minutes before 0.6% acetic acid i.p.; number of rising and stretching in 20 minutes; read-out: Repression rate (%) Dosage 10 mg/kg
In short: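 Male ICR mice (5 weeks, n=10/group) dosed orally; 30 min later injected i.p. with 0.6% acetic acid. Rising and stretching counted over 20 min; repression rate (%) from group mean counts versus controls.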

yeast-induced pyrexia = assay: Antipyretic activity in yeast-induced pyrexia; type: in vivo, SD rats; settings: 10 mg/kg orally; maximum difference in body temperature vs control over 6 hours
Method: Antipyretic Activity in Yeast-Induced Pyrexia Antipyretic activity was determined using male SD origin male-rats (7 weeks old, CLEA Japan, 1 group: n=6), according to the method of winter et. al. (J. Pharmacol. Exp. Ther., vol. 138, p. 405, 1963). Before 16 hours from measurement of body temperature, a suspension of 15% yeast in saline was injected subcutaneously (10 mL/kg, b.w.) into the rats to induce fever, and simultaneously supply of food was terminated while water was made available all the time. Each of the rats was raised separately. After 16 hours from the yeast shot, a thermistor terminal was inserted at an about 4 cm depth into rectum every hour, and the body temperatures after 30 seconds were recorded. After 18 hours, rats developing fevers consistently were selected, and a sample was orally administered to the rats (5 mL/kg, b.w.), while to the control, only the solvent was administered. After the administration, body temperatures were measured every hour for a period of 6 hours, and the maximum difference in body temperature between the rats in the sample group and in the control group were determined as Δ (° C.).

[2] = system: mucosa of small intestine; assay: Disorder of mucosa of small intestine; type: in vivo, SD rats; settings: 300 mg/kg orally, freely fed rats, 6 hours after dosing
Method: Disorder of Mucosa of Small Intestine Male SD origin male-rats (7 weeks old, CLEA Japan) were used. To the rats freely fed, samples were administered orally (5 mL/kg, b.w.). After 5.5 hours from the administration, Evan's Blue (0.5% Evan's Blue/saline) was injected (1 mL/rat) intravenously under no anesthesia. After 30 minutes from the shot, the intestine was removed by celiotomy and the area thereof facing mesentery was cut open. After removal of intestinal content, the spots in the intestine dyed by Evan's Blue were measured under a stereomicroscope, and the total length (mm) of the spots was determined by a counter and recorded.

IC50 (human COX-2) [µM]	Total length of dyed spots (mm) [2]	SMILES	inhibition in vivo at 10 mg/kg [1] [%]	Δ (° C.) Dosage 10 mg/kg (yeast-induced pyrexia)
49.2	0 (300 mg/kg) mm	CCCOc1c2ccccc2nc2c1c(C)nn2-c1ccccn1 [Example 2-17, 3-Methyl-4-propoxy-1-(2-pyridinyl)-1H-pyrazolo[3,4-b]quinoline]	49	1.5** ° C.
1.37	0 (300 mg/kg) mm	O=c1c2ccccc2[nH]c2c1cnn2-c1ccccn1 [Example 2-159, 1-(2-Pyridinyl)-1,9-dihydro-4H-pyrazolo[3,4-b]quinolin-4-one]	69	1.8** ° C.
65.1	–	CCCNc1c2ccccc2nc2c1c(C)nn2-c1ccccn1 [Example 2-6, N-[3-Methyl-1-(2-pyridinyl)-1H-pyrazolo[3,4-b]quinolin-4-yl]-N-propylamine]	57	0.8** ° C.
86	–	Cc1nn(-c2ccccn2)c2nc3ccccc3c(OC3CCCC3)c12 [Example 2-21, 4-Cyclopentyloxy-3-methyl-1-(2-pyridinyl)-1H-pyrazolo[3,4-b]quinoline]	56	1.8** ° C.

SMILES	IC50 (human COX-2) [µM]	Total length of dyed spots (mm) [2]	inhibition in vivo at 10 mg/kg [1] [%]	Δ (° C.) Dosage 10 mg/kg (yeast-induced pyrexia)
Cc1nn(-c2ccccn2)c2[nH]c3cccc(F)c3c(=O)c12.Cl [Example 2-79, 5-Fluoro-3-methyl-1-(2-pyridinyl)-1,9-dihydro-4H-pyrazolo[3,4-b]quinolin-4-one hydrochloride]	3.7	0 (300 mg/kg) mm	38	1.4** ° C.
